Test results: patent US20060009918A1, “Methods and materials for enhancing the effects of protein modulators” (priority 2004, published 2006)
pKd: −log10 of the molar value.

Target: T1, carbonic anhydrase (bovine erythrocyte, Sigma Chemical Company, mixture of isozymes) (Bos taurus, UniProt P00921)
T1 construct: purchased Sigma Chemical Company; host or cells: bovine erythrocyte
Assay: Binding constants by isothermal titration calorimetry
Description: The binding constants of these complexes with carbonic anhydrase (bovine erythrocyte, Sigma Chemical Company, mixture of isozymes) were determined employing isothermal titration calorimetry (25 mM HEPES buffer, pH=7.0), and the results are presented in Table 1.
The titration procedures employing isothermal titration calorimetry were carried out employing the instrument ITC-4200 (Calscorp Inc., Provo, Utah). The reference cell (volume: 1.32 mL) was filled with 25 mM HEPES buffer, pH=7.0. Carbonic anhydrase was taken in the sample cell (1.32 mL, […] protein in 25 mM HEPES buffer, pH=7.0). The copper complexes (1 mM) were dissolved in the same buffer and were added to the enzyme solution (42×5 μL injections). Heats of dilution for the complexes were separately determined by injecting the solution of the complexes in buffer (taken in the sample cell). The heats of dilution were subtracted from the titration data files, and the resultant data were processed by the software provided by the manufacturer (Bind Works 3.0).

[1] = isothermal titration calorimetry, 25 mM HEPES buffer, pH=7.0

T1 sequence (P00921 2-260 limits assumed): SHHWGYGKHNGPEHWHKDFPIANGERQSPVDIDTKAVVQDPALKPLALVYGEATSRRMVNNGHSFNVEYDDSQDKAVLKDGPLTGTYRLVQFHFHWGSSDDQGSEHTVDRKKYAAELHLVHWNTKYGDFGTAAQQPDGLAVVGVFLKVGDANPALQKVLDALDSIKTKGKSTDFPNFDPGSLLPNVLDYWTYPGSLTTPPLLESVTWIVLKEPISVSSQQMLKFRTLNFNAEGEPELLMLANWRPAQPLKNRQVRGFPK

Question: How did the pKd (carbonic anhydrase, summary statement) turn out when `NS(=O)(=O)c1ccccc1` [Control 6, Benzene sulfonamide, reference compound] was run?
Answer: The pKd was 3.92.

Question: What about the Binding constant [1] of the same compound?
Answer: The Binding constant was “(9.0 ± 0.1) × 10^3”.

Question: What about the Enthalpy [1] of the same compound?
Answer: Its Enthalpy is -31.2 ± 1.6 kcal/mol.

Question: And the “affinity for the enzyme (in words)” value (titration with the enzyme)?
Answer: The value was “weak affinity”.
